Data reported in BindingDB's records for doi:10.1016/j.bioorg.2010.11.002 (University of Catania, 2011).

Experiments:
[1] = target: Stromelysin-1 (Homo sapiens, UniProt P08254); assay: Fluorimetric Assay; conditions: pH 7; 25 °C
[2] = target: Collagenase 3 (Homo sapiens, UniProt P45452); assay: Fluorimetric Assay; conditions: pH 7; 25 °C

Sequence of Stromelysin-1 (P08254 whole entry): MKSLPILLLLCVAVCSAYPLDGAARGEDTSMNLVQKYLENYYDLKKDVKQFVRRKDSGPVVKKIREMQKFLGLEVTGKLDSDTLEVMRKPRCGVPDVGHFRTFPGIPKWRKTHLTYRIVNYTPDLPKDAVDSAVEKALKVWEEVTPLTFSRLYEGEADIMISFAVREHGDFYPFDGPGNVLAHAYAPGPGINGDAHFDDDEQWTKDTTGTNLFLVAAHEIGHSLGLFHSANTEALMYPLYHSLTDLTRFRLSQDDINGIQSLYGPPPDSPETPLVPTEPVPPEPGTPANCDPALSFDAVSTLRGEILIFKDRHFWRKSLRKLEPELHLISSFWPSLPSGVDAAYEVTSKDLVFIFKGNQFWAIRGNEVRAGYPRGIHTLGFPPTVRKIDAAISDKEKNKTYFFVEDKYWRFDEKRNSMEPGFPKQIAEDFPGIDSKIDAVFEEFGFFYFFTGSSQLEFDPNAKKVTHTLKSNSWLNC

IC50 [1]	IC50 [2]	SMILES
36.7 µM		Oc1csc(Nc2nc3ccccc3s2)n1 [2-(benzo[d]-thiazol-2-ylimino)-thiazolidin-4-one, 1a]
	32 µM	O=C1N/C(=N/c2nsc3ccccc23)S/C1=C/c1ccccc1 [2-(benzo[d]isothiazol-3-ylimino)-5-benzylidenethiazolidin-4-one, 2b]
